{"source": "patent US20160143877A1", "about": "“COMPOSITION FOR SUPPRESSING ADIPOCYTE DIFFERENTIATION, FOR REDUCING FAT ACCUMULATION AND/OR FOR PROMOTING ADIPONECTIN SECRETION AND USAGE FOR SAID COMPOSITION” (PUBLIC UNIVERSITY CORPORATION OSAKA CITY UNIVERSITY, priority 2013, published 2016)", "key": {"[1]": {"tested_on": "various cell lines used in Examples", "assay": "Toxicity and viability check of the sesaminol solution on the cell lines used", "assay_type": "cell-based", "conditions": "sesaminol solution (3.0 mg/ml in DMSO) as used in Examples", "method": "The highly concentrated sesaminol solution was dissolved in dimethyl sulphoxide (DMSO) to prepare a sesaminol solution (3.0 mg/ml) to be used in Examples."}, "3T3-L1 cells [2]": {"tested_on": "3T3-L1 cells", "assay": "Adipocyte differentiation: TG accumulation by Oil red 0 staining, sesaminol added during differentiation induction", "assay_type": "cell-based, Mouse", "conditions": "read after Day 8", "method": "Preadipocytes, when differentiated into adipocytes, intracellularly accumulate lipid droplets containing TG and the like. In the present Example, sesaminol was added to preadipocyte during induction of differentiation and intracellular TG after completion of induction was stained with an azo dye, Oil red 0, to evaluate an effect of sesaminol on adipocyte differentiation. Mouse fibroblast cell line 3T3-L1 (Japan Health Sciences Foundation) were used as preadipocytes. 3T3-L1 cells were inoculated at a concentration of 1.0×10^5 to 1.0×10^6 cells/ml and cultured until they reached 80 to 90% confluence in a 5% CO2 incubator at 37° C. The culture medium used was Dulbecco's modified Eagle's medium (DMEM: Nissui Pharmaceutical Co., Ltd.) containing 10% fetal bovine serum (FBS: Nichirei Biosciences, Inc.), penicillin (50 units/ml, Meiji Co., Ltd.) and streptomycin ([…], Meiji Co., Ltd.). […] After washing, cells were analysed under a microscope (OLYMPUS IX-70: Olympus Corporation) and photographed."}, "3T3-L1 cells [3]": {"tested_on": "3T3-L1 cells", "assay": "Adipocyte differentiation: glycerol-3-phosphate dehydrogenase (GPDH) activity of cells after differentiation induction", "assay_type": "cell-based, Mouse", "conditions": "sesaminol 0.5 or 1.0 μg/ml during differentiation induction; ** p<0.01 vs control", "method": "GPDH is a rate-limiting enzyme of triacylglycerol (TG; also referred to as triglyceride) synthesis in adipocytes. […] Thus GPDH activity of cells after differentiation induction was measured according to the method of Wise and Green (Wise, L. S. and Green, H., (1979) Participation of one isozyme of cytosolic glycerophosphate dehydrogenase in the adipose conversion of 3T3 cells. The Journal of Biological Chemistry, 254, 273-275). Cells used for the GPDH assay were obtained in the same manner as described in (1-1) and (1-2). As a control, cells were differentiated without addition of the sesaminol solution.\nAdipocytes derived from 3T3-L1 cells on or after Day 8 of induction were washed twice with PBS. Cells were added with a buffer for enzymatic extraction (100 mM triethanolamine, 2.5 mM EDTA) (300 μl) and collected using a cell scraper. […]\nTo a test tube containing the buffer for enzymatic extraction (2800 μl) which was maintained at 28° C. in a water bath, 2-mercaptoethanol (final concentration: 0.1 mM), NADH (final concentration: 0.12 mM), dihydroxyacetone phosphate (DHAP: SIGMA) (final concentration: 0.2 mM) and a measurement sample (50 μl) were added and the absorbance was measured over 3 minutes at 340 nm. GPDH activity was calculated using an extinction coefficient of NADH (6.22 mM^−1cm^−1) on the basis of the change of absorbance per minute (NADH variation). […]"}, "3T3-L1 adipocytes [4]": {"tested_on": "3T3-L1 adipocytes", "assay": "Fat (TG) accumulation in differentiated adipocytes, Oil red 0 staining and absorbance at 520 nm", "assay_type": "cell-based, Mouse", "conditions": "sesaminol 0.5 or 1.0 μg/ml added to differentiated adipocytes, three days", "method": "In the same manner as in (1-1) in Example 1, preadipocyte 3T3-L1 cells were cultured until they reached 80 to 90% confluence. Then the medium was replaced with DMEM containing differentiation inducing agents which were bovine insulin (0.2 μM, Wako Pure Chemical Industries, Ltd.), dexamethasone (0.25 μM, Wako Pure Chemical Industries, Ltd.) and 3-isobutyl-1-methylxanthine (0.5 mM, Wako Pure Chemical Industries, Ltd.) (this is referred to as “Day 0 of differentiation induction”). After two days, the medium was replaced with DMEM containing only insulin (0.2 μM). Thereafter, the medium was replaced with fresh DMEM every two days and induction of differentiation was completed on Day 8 of differentiation induction to obtain adipocytes.\nTo the obtained adipocytes, the sesaminol solution was added so as to obtain the final concentration of sesaminol of 0.5 or 1.0 μg/ml. As a control, cells were cultured without addition of the sesaminol solution. […] Cells were analysed under a microscope (OLYMPUS IX-70: Olympus Corporation) and photographed. […] After microscopic observation, cells were added with isopropanol (3 ml) to extract Oil red 0 staining solution and the resulting extract was measured for absorbance at 520 nm. According to the measured values, TG accumulations in cells were compared. […]"}, "3T3-L1 adipocytes [5]": {"tested_on": "3T3-L1 adipocytes", "assay": "Adiponectin expression level in adipocytes by SDS-PAGE and western blotting", "assay_type": "cell-based, Mouse", "conditions": "sesaminol 0.5 or 1.0 μg/ml added to differentiated adipocytes, three days", "method": "Various physiologically active adipocytokines are secreted from adipocytes. Among these adipocytokines, adiponectin is known to improve insulin resistance and prevent atherosclerosis. In the present Example, the profile of adiponectin secretion after addition of sesaminol to adipocytes was analysed by SDS-PAGE and western blotting.\nIn the same manner as in (1-1) in Example 1, preadipocyte 3T3-L1 cells were cultured until they reached 80 to 90% confluence. […]\nThe sesaminol solution was added so as to obtain the final concentration of sesaminol of 0.5 or 1.0 μg/ml in adipocytes. […] An aliquot of the collected supernatant was subjected to protein quantification using Serva Blue G (Serva Electrophoresis GmbH) based on the absorbance at 595 nm in order to calculate the amount of sample applied to electrophoresis.\nEqual volumes of the supernatant containing cell lysate and a sample buffer were mixed to prepare a sample for electrophoresis. […] The membrane was then subjected to reaction in a DAB solution (3,3′-diaminobenzidine tetrahydrochloride (10 mg), distilled water (1 ml), 0.2 M PBS (50 ml) and 30% H2O2 (100 μl)), dried and then subjected to quantification of intensity of bands using Scion Image (free software: Scion). The ratio of the band intensity of adiponectin relative to the band intensity of β-actin was calculated for the samples."}}, "data": [{"molecule": "Oc1cc2c(cc1C1OCC3C(c4ccc5c(c4)OCO5)OCC13)OCO2", "note": "(stereo not shown) [sesaminol]", "values": [{"measurement": "toxicity to and effect on viability of cell lines", "setting": "[1]", "result": "not toxic to and did not affect viability"}, {"measurement": "cells that did not contain stained lipid droplets (Oil red 0, FIG. 1)", "setting": "3T3-L1 cells [2]; sesaminol 0.5 μg/ml added on Days 0, 2, 4 and 6 of differentiation induction", "result": "many cells"}, {"measurement": "cells that did not contain stained lipid droplets (Oil red 0, FIG. 1)", "setting": "3T3-L1 cells [2]; sesaminol 1.0 μg/ml added on Days 0, 2, 4 and 6 of differentiation induction", "result": "almost all the cells"}, {"measurement": "GPDH activity of cells after differentiation induction (FIG. 2, percent of control)", "setting": "3T3-L1 cells [3]", "result": "decreased with an increase in the amount of sesaminol added"}, {"measurement": "size of lipid droplets in adipocytes (FIG. 3)", "setting": "3T3-L1 adipocytes [4]", "result": "tend to decrease the size compared to the control"}, {"measurement": "TG accumulation in adipocytes (FIG. 4, percent of control)", "setting": "3T3-L1 adipocytes [4]; * p<0.05 vs control", "result": "decreased TG accumulation"}, {"measurement": "adiponectin expression level (band intensity ratio adiponectin/β-actin, control = 1, FIG. 5)", "setting": "3T3-L1 adipocytes [5]", "result": "significantly enhanced with an increase in the amount of sesaminol added"}]}]}
